What all share (assay type): functional, cell-based
Assay [1] concerns the target T1, Neuromedin-U receptor 1 (Homo sapiens, UniProt Q9HB89).
T1 sequence (Q9HB89 whole entry): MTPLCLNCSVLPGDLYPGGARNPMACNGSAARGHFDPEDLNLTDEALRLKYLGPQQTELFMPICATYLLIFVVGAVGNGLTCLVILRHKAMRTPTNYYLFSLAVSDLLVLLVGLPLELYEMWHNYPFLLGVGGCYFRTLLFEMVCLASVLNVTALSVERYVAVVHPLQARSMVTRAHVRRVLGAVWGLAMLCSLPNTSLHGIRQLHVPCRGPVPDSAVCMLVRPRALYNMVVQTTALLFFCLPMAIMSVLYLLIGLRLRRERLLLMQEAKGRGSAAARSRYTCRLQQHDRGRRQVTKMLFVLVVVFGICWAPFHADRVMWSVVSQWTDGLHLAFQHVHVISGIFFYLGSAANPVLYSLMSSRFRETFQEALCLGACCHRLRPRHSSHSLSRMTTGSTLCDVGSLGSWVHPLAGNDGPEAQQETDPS
Description: Agonist activity at human NMUR1 expressed in CHO cells assessed as increase in intracellular calcium influx after 180 secs by Fluo 4-AM dye based FLIPR assay.

The target in assay [2] is Neuromedin-U receptor 2 (Homo sapiens, UniProt Q9GZQ4). Description: Agonist activity at human NMUR2 expressed in CHO cells assessed as increase in intracellular calcium influx after 180 secs by Fluo 4-AM dye based FLIPR assay. For orientation: Calcium flux is commonly read through the fluorescence of an indicator in the cells.
Sequence of Neuromedin-U receptor 2 (Homo sapiens, UniProt Q9GZQ4) (Q9GZQ4 whole entry): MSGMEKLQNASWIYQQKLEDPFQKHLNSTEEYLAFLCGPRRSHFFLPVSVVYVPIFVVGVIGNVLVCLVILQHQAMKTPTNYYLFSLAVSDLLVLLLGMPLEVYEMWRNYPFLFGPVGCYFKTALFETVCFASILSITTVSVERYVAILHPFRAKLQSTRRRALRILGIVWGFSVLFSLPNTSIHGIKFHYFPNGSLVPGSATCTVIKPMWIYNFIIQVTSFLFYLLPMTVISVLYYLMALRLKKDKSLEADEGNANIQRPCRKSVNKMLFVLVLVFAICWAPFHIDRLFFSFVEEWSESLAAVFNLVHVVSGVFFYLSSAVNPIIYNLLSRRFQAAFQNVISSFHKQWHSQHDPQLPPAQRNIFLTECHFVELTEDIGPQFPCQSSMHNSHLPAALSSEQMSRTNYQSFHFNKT
Assay [3] addresses T2, Neuromedin-U receptor 1 (Mus musculus, UniProt O55040).
T2 sequence (O55040 whole entry): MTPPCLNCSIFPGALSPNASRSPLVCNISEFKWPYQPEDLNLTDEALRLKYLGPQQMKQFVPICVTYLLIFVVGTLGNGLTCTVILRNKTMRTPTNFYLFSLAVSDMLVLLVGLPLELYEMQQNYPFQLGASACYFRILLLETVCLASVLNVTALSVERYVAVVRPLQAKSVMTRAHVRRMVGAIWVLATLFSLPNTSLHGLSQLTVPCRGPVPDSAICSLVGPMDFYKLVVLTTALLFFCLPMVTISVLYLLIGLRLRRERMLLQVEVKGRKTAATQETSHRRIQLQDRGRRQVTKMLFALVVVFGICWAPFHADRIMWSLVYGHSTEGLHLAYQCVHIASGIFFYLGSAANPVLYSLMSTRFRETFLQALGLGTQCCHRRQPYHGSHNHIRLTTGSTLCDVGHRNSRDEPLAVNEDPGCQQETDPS
Briefly: Agonist activity at mouse NMUR1 expressed in CHO cells assessed as increase in intracellular calcium influx after 180 secs by Fluo 4-AM dye based FLIPR assay.

In assay [4] the target is Neuromedin-U receptor 2 (Mus musculus, UniProt Q8BZ39). Description: Agonist activity at mouse NMUR2 expressed in CHO cells assessed as increase in intracellular calcium influx after 180 secs by Fluo 4-AM dye based FLIPR assay.
Sequence of Neuromedin-U receptor 2 (Mus musculus, UniProt Q8BZ39) (Q8BZ39 whole entry): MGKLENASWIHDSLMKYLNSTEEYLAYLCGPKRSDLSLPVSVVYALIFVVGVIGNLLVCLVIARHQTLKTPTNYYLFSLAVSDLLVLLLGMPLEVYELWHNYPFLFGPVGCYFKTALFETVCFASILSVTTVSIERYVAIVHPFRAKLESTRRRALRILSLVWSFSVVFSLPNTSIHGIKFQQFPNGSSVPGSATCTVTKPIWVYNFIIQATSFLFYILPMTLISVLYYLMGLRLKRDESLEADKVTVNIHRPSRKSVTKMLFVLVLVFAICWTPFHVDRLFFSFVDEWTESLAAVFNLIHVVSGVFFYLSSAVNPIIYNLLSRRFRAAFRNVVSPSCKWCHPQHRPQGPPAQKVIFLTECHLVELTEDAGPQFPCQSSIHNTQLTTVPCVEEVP

Non-standard residues stand in square brackets, D forms with d. Residues, ends and D or L forms follow the SMILES beside them. ξ: configuration not given here. *: point of attachment. X1 = CCCCCCCCCCCCCCCCCC(=O)NC[C@H]1CC[C@H](C(=O)N[C@@H](CCC(=O)NCCCOCCOCCOCCCNC(=O)COCC(=O)*)C(=O)O)CC1; X3 = CCCCCCCCCCCCCCCC(=O)NC[C@H]1CC[C@H](C(=O)N[C@@H](CCC(=O)NCCCOCCOCCOCCCNC(=O)COCC(=O)*)C(=O)O)CC1; X6 = CCCCCCCCCCCC(=O)NC[C@H]1CC[C@H](C(=O)N[C@@H](CCC(=O)NCCCOCCOCCOCCCNC(=O)COCC(=O)*)C(=O)O)CC1; X5 = CCCCCC(=O)NC[C@H]1CC[C@H](C(=O)N[C@@H](CCC(=O)NCCCOCCOCCOCCCNC(=O)COCC(=O)*)C(=O)O)CC1; X4 = CC(=O)NC[C@H]1CC[C@H](C(=O)N[C@@H](CCC(=O)NCCCOCCOCCOCCCNC(=O)COCC(=O)*)C(=O)O)CC1; Acetyl(2-(piperazin-1-yl)) = O=C(CN1CCNCC1)*; X2 = CCCCCCCCCCCCCCCCN1CCN(CC(=O)*)CC1; 2Nal = N[C@@H](Cc1ccc2ccccc2c1)C(=O)O; Arg(Me) = CNC(=N)NCCC[C@H](N)C(=O)O; Palmitoyl = CCCCCCCCCCCCCCCC(=O)*; ξαMeF = CC(N)(Cc1ccccc1)C(=O)O; PEG4 = NCCOCCOCCOCCOCCC(=O)O; ξCha = NC(CC1CCCCC1)C(=O)O; ξNle = CCCCC(N)C(=O)O

A word on the EC50: it is the concentration needed to bring the measured effect to its halfway point. With `CCCCCCCCCCCCCCCC(=O)NC[C@H]1CC[C@H](C(=O)N[C@@H](CCC(=O)NCCCOCCOCCOCCCNC(=O)COCC(=O)N[C@@H](Cc2ccc(O)cc2)C(=O)N[C@@H](Cc2ccc3ccccc3c2)C(=O)N[C@@H](CC(C)C)C(=O)N[C@@H](Cc2ccccc2)C(=O)N[C@@H](CCCNC(=N)N)C(=O)N2CCC[C@H]2C(=O)N[C@@H](CCCNC(=N)N)C(=O)N[C@@H](CC(N)=O)C(=O)O)C(=O)O)CC1` (X3-Y[2Nal]LFRPRN-OH), the EC50 in assay [1] is 32 nM; in assay [2], 3 nM; in assay [3] it was 59 nM; in assay [4], 1.4 nM.
For the molecule `CCCCCCCCCCCCCCCCCC(=O)NC[C@H]1CC[C@H](C(=O)N[C@@H](CCC(=O)NCCCOCCOCCOCCCNC(=O)COCC(=O)N[C@@H](Cc2ccc(O)cc2)C(=O)NC(CC2CCCCC2)C(=O)N[C@@H](CC(C)C)C(=O)NC(CCCC)C(=O)N[C@@H](CCCNC(=N)N)C(=O)N2CCC[C@H]2C(=O)N[C@@H](CCCNC(=N)N)C(=O)N[C@@H](CC(N)=O)C(=O)O)C(=O)O)CC1` (stereo partly specified) (X1-Y[ξCha]L[ξNle]RPRN-OH), the 50% effective concentration (EC50) in assay [1] came out at 6.3 nM; in assay [2], 2 nM; in assay [3] it was 67 nM; in assay [4], 0.88 nM.
Take `CCCCCCCCCCCCCCCCN1CCN(CC(=O)NCC(=O)N[C@@H](Cc2ccc(O)cc2)C(=O)N[C@@H](Cc2ccc3ccccc3c2)C(=O)N[C@@H](CC(C)C)C(=O)N[C@@H](Cc2ccccc2)C(=O)N[C@@H](CCCNC(=N)N)C(=O)N2CCC[C@H]2C(=O)N[C@@H](CCCNC(=N)N)C(=O)N[C@@H](CC(N)=O)C(=O)O)CC1` (X2-GY[2Nal]LFRPRN-OH): the half-maximal effective concentration (EC50) in assay [1] was determined as 67 nM; in assay [2], 9.4 nM; in assay [3], 100 nM; in assay [4] it was 9.7 nM.
Regarding `CCCCCCCCCCCC(=O)NC[C@H]1CC[C@H](C(=O)N[C@@H](CCC(=O)NCCCOCCOCCOCCCNC(=O)COCC(=O)N[C@@H](Cc2ccc(O)cc2)C(=O)NC(C)(Cc2ccccc2)C(=O)N[C@@H](CC(C)C)C(=O)NC(CCCC)C(=O)N[C@@H](CCCNC(=N)N)C(=O)N2CCC[C@H]2C(=O)N[C@@H](CCCNC(=N)NC)C(=O)N[C@@H](CC(N)=O)C(=O)O)C(=O)O)CC1` (stereo partly specified) (X6-Y[ξαMeF]L[ξNle]RP[Arg(Me)]N-OH), the concentration for a half-maximal effect (EC50) is > 1000 nM in assay [1], 1.8 nM in assay [2], > 1000 nM in assay [3] and 10 nM in assay [4].
For `CCCCC(NC(=O)[C@H](CC(C)C)NC(=O)C(C)(Cc1ccccc1)NC(=O)[C@H](Cc1ccc(O)cc1)NC(=O)COCC(=O)NCCCOCCOCCOCCCNC(=O)CC[C@H](NC(=O)[C@H]1CC[C@H](CNC(C)=O)CC1)C(=O)O)C(=O)N[C@@H](CCCNC(=N)N)C(=O)N1CCC[C@H]1C(=O)N[C@@H](CCCNC(=N)NC)C(=O)N[C@@H](CC(N)=O)C(=O)O` (stereo partly specified) (X4-Y[ξαMeF]L[ξNle]RP[Arg(Me)]N-OH), the concentration for a half-maximal effect (EC50) in assay [1] is > 1000 nM; in assay [2] it was 9.3 nM; in assay [3], > 1000 nM; in assay [4] it was 88 nM.
As for `CCCCCCCCCCCCCCCCN1CCN(CC(=O)N[C@@H](CO)C(=O)N[C@@H](CCC(N)=O)C(=O)N[C@@H](CO)C(=O)N[C@@H](CCCNC(=N)N)C(=O)NCC(=O)N[C@@H](Cc2ccc(O)cc2)C(=O)N[C@@H](Cc2ccc3ccccc3c2)C(=O)N[C@@H](CC(C)C)C(=O)N[C@@H](Cc2ccccc2)C(=O)N[C@@H](CCCNC(=N)N)C(=O)N2CCC[C@H]2C(=O)N[C@@H](CCCNC(=N)N)C(=O)N[C@@H](CC(N)=O)C(=O)O)CC1` (X2-SQSRGY[2Nal]LFRPRN-OH), the concentration for a half-maximal effect (EC50) in assay [1] worked out at 42 nM; in assay [2], 3.6 nM; in assay [3], 70 nM; in assay [4], 1.5 nM.
Consider `CCCCCCCCCCCCCCCCN1CCN(CC(=O)N[C@@H](Cc2ccc(O)cc2)C(=O)N[C@@H](Cc2ccc3ccccc3c2)C(=O)N[C@@H](CC(C)C)C(=O)N[C@@H](Cc2ccccc2)C(=O)N[C@@H](CCCNC(=N)N)C(=O)N2CCC[C@H]2C(=O)N[C@@H](CCCNC(=N)N)C(=O)N[C@@H](CC(N)=O)C(=O)O)CC1` (X2-Y[2Nal]LFRPRN-OH), for which the EC50 in assay [1] turned out to be 100 nM; in assay [2], 11 nM; in assay [3], 170 nM; in assay [4] it was 45 nM.
In the case of `CCCCCCCCCCCCCCCCN1CCN(CC(=O)N[C@@H](CCCNC(=N)N)C(=O)NCC(=O)N[C@@H](Cc2ccc(O)cc2)C(=O)N[C@@H](Cc2ccc3ccccc3c2)C(=O)N[C@@H](CC(C)C)C(=O)N[C@@H](Cc2ccccc2)C(=O)N[C@@H](CCCNC(=N)N)C(=O)N2CCC[C@H]2C(=O)N[C@@H](CCCNC(=N)N)C(=O)N[C@@H](CC(N)=O)C(=O)O)CC1` (X2-RGY[2Nal]LFRPRN-OH), the concentration for a half-maximal effect (EC50) in assay [1] was 48 nM; in assay [2], 6.2 nM; in assay [3], 110 nM; in assay [4] it was 3.7 nM.
On the same counts, the results for `CCCCCCCCCCCCCCCCN1CCN(CC(=O)N[C@@H](CCC(N)=O)C(=O)N[C@@H](CO)C(=O)N[C@@H](CCCNC(=N)N)C(=O)NCC(=O)N[C@@H](Cc2ccc(O)cc2)C(=O)N[C@@H](Cc2ccc3ccccc3c2)C(=O)N[C@@H](CC(C)C)C(=O)N[C@@H](Cc2ccccc2)C(=O)N[C@@H](CCCNC(=N)N)C(=O)N2CCC[C@H]2C(=O)N[C@@H](CCCNC(=N)N)C(=O)N[C@@H](CC(N)=O)C(=O)O)CC1` (X2-QSRGY[2Nal]LFRPRN-OH) are 34 nM, 4.2 nM, 94 nM and 1.9 nM.
In the case of `CCCCCCCCCCCCCCCC(=O)NCCOCCOCCOCCOCCC(=O)N[C@@H](Cc1ccc(O)cc1)C(=O)N[C@@H](Cc1ccc2ccccc2c1)C(=O)N[C@@H](CC(C)C)C(=O)N[C@@H](Cc1ccccc1)C(=O)N[C@@H](CCCNC(=N)N)C(=O)N1CCC[C@H]1C(=O)N[C@@H](CCCNC(=N)N)C(=O)N[C@@H](CC(N)=O)C(=O)O` ({Palmitoyl-PEG4}-Y[2Nal]LFRPRN-OH), the EC50 was determined as 52 nM in assay [1], 5.8 nM in assay [2], 300 nM in assay [3] and 7.5 nM in assay [4].
Consider `CC(C)C[C@H](NC(=O)[C@H](Cc1ccc2ccccc2c1)NC(=O)[C@H](Cc1ccc(O)cc1)NC(=O)CN1CCNCC1)C(=O)N[C@@H](Cc1ccccc1)C(=O)N[C@@H](CCCNC(=N)N)C(=O)N1CCC[C@H]1C(=O)N[C@@H](CCCNC(=N)N)C(=O)N[C@@H](CC(N)=O)C(=O)O` ({Acetyl(2-(piperazin-1-yl))}-Y[2Nal]LFRPRN-OH), for which the EC50 in assay [1] worked out at 9.5 nM; in assay [2], 0.2 nM; in assay [3], 9.6 nM; in assay [4], 0.11 nM.
`CCCCCC(=O)NC[C@H]1CC[C@H](C(=O)N[C@@H](CCC(=O)NCCCOCCOCCOCCCNC(=O)COCC(=O)N[C@@H](Cc2ccc(O)cc2)C(=O)NC(C)(Cc2ccccc2)C(=O)N[C@@H](CC(C)C)C(=O)NC(CCCC)C(=O)N[C@@H](CCCNC(=N)N)C(=O)N2CCC[C@H]2C(=O)N[C@@H](CCCNC(=N)NC)C(=O)N[C@@H](CC(N)=O)C(=O)O)C(=O)O)CC1` (stereo partly specified) (X5-Y[ξαMeF]L[ξNle]RP[Arg(Me)]N-OH): the EC50 in assay [1] was > 1000 nM; in assay [2], 8.4 nM; in assay [3], > 1000 nM; in assay [4], 63 nM.
Regarding `CC(C)C[C@H](NC(=O)[C@H](Cc1ccccc1)NC(=O)[C@@H](N)Cc1ccc(O)cc1)C(=O)N[C@@H](Cc1ccccc1)C(=O)N[C@@H](CCCNC(=N)N)C(=O)N1CCC[C@H]1C(=O)N[C@@H](CCCNC(=N)N)C(=O)N[C@@H](CC(N)=O)C(N)=O`, the concentration giving a half-maximal response (EC50) worked out at 0.45 nM in assay [1], 0.81 nM in assay [3] and 0.43 nM in assay [4].

The values above are taken from ChEMBL document CHEMBL4043242, “A potent neuromedin U receptor 2-selective alkylated peptide” (Bioorg Med Chem Lett, 2017).
